Measurements from US4544629A, “Receptor-based histamine assay” (Minnesota Mining and Manufacturing Company, priority 1982, dated 1985).
Structures can show the parent of a compound that is named as a salt. Where two headings read alike, the source gives them in different places.

How the values were obtained:
histamine receptor [1] = system: histamine receptor
Protocol: (§1) Samples of 200 microliters of heat-inactivated fetal calf sera were added to each well of a polystyrene microtiter plate as a protein pretreatment and the seracontaining plates were incubated at 25° C. for 15 minutes. Each well was then washed twice with phosphate-buffered saline. To each well was added 200 microliters of 1 millimolar trinitrobenzene sulfonate in phosphate-buffered saline, and the plate was incubated at 37° C. for thirty minutes. Each well was then washed three times with phosphate-buffered saline. To each well was then added 200 microliters of histamine receptor in phosphate buffered saline prepared according to the procedure of EXAMPLE 1. The plate was then incubated at 25° C. for thirty minutes. After the incubation, each well was washed three times with phosphate-buffered saline and the plates were allowed to air dry at 25° C. for about 16 hours, then stored at 4° C.

[2] = system: histamine receptors attached to a solid phase; settings: anticoagulated human whole blood
Protocol: (§2) To determine the sensitivity of the histamine assay, an inhibition assay was performed using whole cells with histamine in 0.01M phosphate-bufferedsaline as the inhibitor. The histamine was incubated with 1×10^6cells for 30 minutes. The unbound inhibitor was washed out and the histamine-enzyme added and incubated 30 minutes. After washing out the unbound indicator, the enzyme substrate, p-nitrophenyl phosphate was added and incubated for 1 hour at 37° C. The enzymatic reaction was stopped with 1N aqueous sodium hydroxide and the absorbance at A410 read from a Beckman spectrophotometer. The amount of product formed was inversely proportional to the amount of free histamine bound to the cells.
(§3) Cell surface histamine receptors prepared as described in EXAMPLE 1 were affixed to microtiter plate wells by protein pretreatment (see EXAMPLE 2) of the plate followed by surface activation with 1 millimolar trinitrobenzene sulfonate as described in EXAMPLE 2.
(§4) The various quantities of histamine in phosphate-buffered saline were incubated in several replications with the receptor. […] After washing out the unbound indicator, para-nitrophenyl phosphate was added and incubated for 1 hour at 37° C. The enzymatic reaction was stopped with 1N aqueous sodium hydroxide and the absorbance at A410 read from a Beckman spectrophotometer.
Using the method described in EXAMPLES 6 and 7, the sensitivity of the assay to histamine dissolved in anticoagulated human whole blood was measured.

[3] = system: histamine receptor on whole cells
Protocol: The reaction was stopped with 1N aqueous sodium hydroxide and the product formed was quantified spectrophotometrically. The total enzyme activity was determined by incubating 10 microliters of the dilutions of histamine-enzyme with the enzyme substrate for 60 minutes, stopping the reaction with lN aqueous sodium hydroxide and quantifying the product formed.

[4] = system: histamine receptor on whole cells; settings: 1×10^6 cells
Protocol: as §2

histamine receptor [5] = settings: read at 510 nm, blank .400, background .095
Protocol: (§5) In order to free the histamine receptors from the cell wall, the cells were washed three times in phosphate buffered saline, resuspended at a concentration of 1×10^7 cells per ml in phosphate-buffered saline and either stored at 4° C. for three days or incubated at 46° C. for 90 minutes. The cells were then centrifuged at 1000 X G for ten minutes. The supernatant liquid containing the shed histamine receptors was removed by aspiration and the cell pellet discarded.
as §1

[6] = system: cell surface histamine receptors; settings: phosphate-buffered saline
Protocol: as §5, §1, §3, §4

Question: Which “Average 3H Counts per minute” value (histamine receptor [1]; control wells (nonspecific binding)) does the source give for `[3H]c1nc(CCN)c([3H])[nH]1` [3H-labeled histamine, 2,5-^3 H-histamine hydrochloride] here?
Answer: 1172 Counts per minute

Question: What about the “Average 3H Counts per minute” value (histamine receptor [1]; receptor wells) of the same compound?
Answer: 7968 Counts per minute

Question: How did the “Percent inhibition of enzyme activity” value ([2]; 1 ng histamine added) turn out when `NCCc1c[nH]cn1` [Histamine, histamine] was run?
Answer: 49%

Question: And the “Percent inhibition of enzyme activity” value ([2]; 5 ng histamine added)?
Answer: 70%

Question: And the “Percent inhibition of enzyme activity” value ([2]; 10 ng histamine added)?
Answer: 79%

Question: And the “Percent inhibition of enzyme activity” value ([2]; 25 ng histamine added)?
Answer: 91%

Question: What about the “Inhibition of receptor-bound histamine-enzyme stimulation” value [3] of the same compound?
Answer: inhibitable

Question: And the “Effect of added histamine on the enhanced enzyme activity” value ([3]; histamine added before incubation with histamine-alkaline phosphatase)?
Answer: inhibited

Question: What about the “Percent inhibition of enzyme activity” value ([4]; histamine added 500 pg) of the same compound?
Answer: 7%

Question: What about the “Percent inhibition of enzyme activity” value ([4]; histamine added 5 ng) of the same compound?
Answer: 14%

Question: What about the “Percent inhibition of enzyme activity” value ([4]; histamine added 50 ng) of the same compound?
Answer: 24%

Question: What about the “Percent inhibition of enzyme activity” value ([4]; histamine added 500 ng) of the same compound?
Answer: 32%

Question: And the “Percent inhibition of enzyme activity” value ([4]; histamine added 5 g (so in the source))?
Answer: 45%

Question: And the “Percent inhibition of enzyme activity” value ([4]; histamine added 50 g (so in the source))?
Answer: 69%

Question: And the Absorbance (histamine receptor [5]; 25 micrograms histamine per well)?
Answer: .310

Question: What about the Absorbance (histamine receptor [5]; 50 micrograms histamine per well) of the same compound?
Answer: .285

Question: And the Absorbance (histamine receptor [5]; 75 micrograms histamine per well)?
Answer: .205

Question: What about the Absorbance (histamine receptor [5]; 100 micrograms histamine per well) of the same compound?
Answer: .125

Question: What about the “Percent inhibition of enzyme activity” value ([6]; 0.05 ng histamine added) of the same compound?
Answer: 30%

Question: What about the “Percent inhibition of enzyme activity” value ([6]; 0.1 ng histamine added) of the same compound?
Answer: 40%

Question: And the “Percent inhibition of enzyme activity” value ([6]; 0.25 ng histamine added)?
Answer: 46%

Question: And the “Percent inhibition of enzyme activity” value ([6]; 0.5 ng histamine added)?
Answer: 52%

Question: And the “Percent inhibition of enzyme activity” value ([6]; 1 ng histamine added)?
Answer: 60%

Question: What about the “Percent inhibition of enzyme activity” value ([6]; 5 ng histamine added) of the same compound?
Answer: 65%

Question: What about the “Percent inhibition of enzyme activity” value ([6]; 10 ng histamine added) of the same compound?
Answer: 72%

Question: What about the “Percent inhibition of enzyme activity” value ([6]; 25 ng histamine added) of the same compound?
Answer: 79%
